Results from patent US20200147233A1, “METHOD FOR KILLING TUMOR CELLS AND COMPOSITION USED THEREFOR” (PhotoQ3 Inc., priority 2018, published 2020).

Experiments:
[1] = test system: HSQ-89 cell line xenograft; experiment: Antitumor effects of combined use of IT-Robo1 and PCI on HSQ-89 cell line xenograft mice; type: in vivo
Protocol: A supernatant was aspirated from a 10 cmφ dish, in which the HSQ-89 cell line was cultured, and was then washed with D-PBS (Dulbecco's phosphate buffer). Thereafter, 1 ml of 2.5 g/l trypsin/1 mM EDTA solution was added to the resultant, and the obtained mixture was then left at rest for several minutes in a CO2 incubator. After confirming that the cells were peeled from the bottom surface of the dish, 9 ml of the culture solution was added, and centrifugation was then performed at 1,000 rpm at 4° C. for 5 minutes. After that, a supernatant was aspirated, 10 ml of PBS was then added thereto, and the obtained mixture was then centrifuged at 1,000 rpm at 4° C. for 5 minutes. Thereafter, a supernatant was aspirated, 10 ml of PBS was added thereto, and the number of cells was then counted. Again, 10 ml of PBS was added to the cells, and the obtained mixture was then centrifuged at 1,000 rpm at 4° C. for 5 minutes. Thereafter, a supernatant was aspirated, and PBS was added thereto to a cell density of 2×10^7 cell/ml. Basement Membrane Matrix Gel (Corning, N.Y.) that had been cooled on ice was added in an equal amount, and 2×10^6 cells/200 μl were then collected using a 23G needle and a 1-ml syringe that had been cooled on ice. Subsequently, the collected cells were subcutaneously administered (SC) to the right shoulder of 6-weel-old male BALB/cSlc-nu/nu mice to produce xenograft mice (cancer-bearing mice). The size of a tumor was calculated according to the following equation:
Tumor size=π/6×Height (mm)×Width (mm)×Depth (mm) […]
With reference to “Guidelines for Proper Conduct of Animal Experiments (2006)” established by Science Council of Japan, a tumor with a size of 1,000 mm^3 or more, or a drastic reduction in body weight (a reduction of 25% or more of body weight for a week) was set at endpoint, and the mice were euthanized by cervical dislocation. The measurement of a tumor size and evaluation of the body weight were carried out over time, and at the endpoint, the size and weight of the tumor and the body weight were evaluated.

SAS cells = experiment: Cytotoxicity of AlPcS2a itself (photosensitizer tolerance); type: cell-based; settings: AlPcS2a alone with light
Protocol: For the purpose of increasing IT-Robo 1 internalization efficiency, the present inventors have used AlPcS2a, which forms reactive oxygen species as a result of light irradiation and induces destruction of endosome. At first, the cytotoxicity of AlPcS2a itself was examined, and the optimal concentration to various cells was then determined.

aluminum phthalocyanine disulfonic acid [AlPcS2a]
ulcer and crust formation at irradiated site ([1]; about two days after the irradiation): an ulcer was formed at the cancer protrusion site
edema at irradiated site ([1]; after local irradiation with 650 nm, for several days from the next day, gradually reduced): edema was found at the irradiated sites and the surrounding portions thereof
time until crust fell off after crust formation ([1]; mouse, in vivo): 10 days
sensitivity of cells to photosensitizer treatment (SAS cells): weak to the treatment with a photosensitizer
